Source: US4900673A, “Mutant human angiogenin (angiogenesis factor with superior angiogenin activity) genes therefor and methods of expression” (President and Fellows of Harvard College, priority 1988, dated 1990)

Legend:
bovine RNase A = molecular target: T1, bovine RNase A (Bos taurus, UniProt P61823); details: measured under conditions employed here (Harper et al., Biochemistry 27: 219-226); cited from earlier work
T1 sequence (P61823 27-150): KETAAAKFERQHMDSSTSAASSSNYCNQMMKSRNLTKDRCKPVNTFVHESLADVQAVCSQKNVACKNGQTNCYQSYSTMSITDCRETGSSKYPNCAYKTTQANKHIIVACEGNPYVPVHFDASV

[1] = molecular target: T2, human angiogenin variant D116N-angiogenin (Asn-116) (Homo sapiens, UniProt P03950, D140N); assay: Cleavage of dinucleoside phosphates (HPLC method); format: biochemical; details: 30 mM Mes, pH 6.0, 30 mM NaCl, 0.1 mM dinucleoside phosphate, 37° C.
T2 construct: made in house; host or cells: E. coli W3110
T2 sequence (P03950 25-147 D140N): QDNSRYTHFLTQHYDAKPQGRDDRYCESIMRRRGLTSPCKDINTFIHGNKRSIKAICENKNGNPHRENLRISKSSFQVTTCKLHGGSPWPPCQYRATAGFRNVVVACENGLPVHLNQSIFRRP
Description: Activity toward the RNase substrates cytidyl (3'→5') adenosine (CpA) and uridyl (3'→5') adenosine (UpA) was determined using a sensitive HPLC method described previously (Shapiro et al., Biochemistry 25: 3527-3532 and 7255-7264 1986). Reaction mixture containing 30 mM 2-(N-morpholino) ethane sulfonic acid (Mes), pH 6.0, 30 mM NaCl and 0.1 mM dinucleoside phosphate were incubated with angiogenin (0.7-3.0 μM) at 37° C. Aliquots (15-20 μl) were removed at various times and injected onto an HPLC column (radial Pak C18; Waters Associates) equilibrated with 10 mM potassium phosphate, pH 7.0. Elution of reactants and products was accomplished using a linear gradient of methanol in 100 mM potassium phosphate pH 7.0 at a flow rate of 0.8 ml/minutes. Elution was monitored at 254 nm and the integrated areas of reactants and products used to calculate kcat /Km using the expression kcat /Km =1n {[S] o /[S]t }/[E]t.

Row | Structure (SMILES) | kcat /Km (bovine RNase A) | kcat /Km [1]
1 | Nc1ccn([C@@H]2O[C@H](CO)[C@@H](OP(=O)(O)OC[C@H]3O[C@@H](n4cnc5c(N)ncnc54)[C@H](O)[C@@H]3O)[C@H]2O)c(=O)n1 [CpA, cytidyl (3'→5') adenosine] | 6e+06 M⁻¹ s⁻¹ | –
2 | Nc1ncnc2c1ncn2[C@@H]1O[C@H](COP(=O)(O)O[C@H]2[C@@H](O)[C@H](n3ccc(=O)[nH]c3=O)O[C@@H]2CO)[C@@H](O)[C@H]1O [UpA, uridyl (3'→5') adenosine] | 4e+06 M⁻¹ s⁻¹ | 0.5 M^-1 s^-l
